Measured values as given in patent US6683181B2, “Pyrroloquinolones as antiviral agents” (Pharmacia and Upjohn Comapny, priority 2000, dated 2004).

Key:
CMV Polymerase = biological target: T1, CMV Polymerase (Human cytomegalovirus, UniProt P08546); assay: HCMV polymerase scintillation proximity assay (modified version); assay type: biochemical; conditions: modified SPA assay; compounds diluted in 100% DMSO; 4.5 mM DTT
T1 construct: made in house; host or cells: recombinant baculovirus-infected SF-9 cells
T1 sequence (P08546 whole entry): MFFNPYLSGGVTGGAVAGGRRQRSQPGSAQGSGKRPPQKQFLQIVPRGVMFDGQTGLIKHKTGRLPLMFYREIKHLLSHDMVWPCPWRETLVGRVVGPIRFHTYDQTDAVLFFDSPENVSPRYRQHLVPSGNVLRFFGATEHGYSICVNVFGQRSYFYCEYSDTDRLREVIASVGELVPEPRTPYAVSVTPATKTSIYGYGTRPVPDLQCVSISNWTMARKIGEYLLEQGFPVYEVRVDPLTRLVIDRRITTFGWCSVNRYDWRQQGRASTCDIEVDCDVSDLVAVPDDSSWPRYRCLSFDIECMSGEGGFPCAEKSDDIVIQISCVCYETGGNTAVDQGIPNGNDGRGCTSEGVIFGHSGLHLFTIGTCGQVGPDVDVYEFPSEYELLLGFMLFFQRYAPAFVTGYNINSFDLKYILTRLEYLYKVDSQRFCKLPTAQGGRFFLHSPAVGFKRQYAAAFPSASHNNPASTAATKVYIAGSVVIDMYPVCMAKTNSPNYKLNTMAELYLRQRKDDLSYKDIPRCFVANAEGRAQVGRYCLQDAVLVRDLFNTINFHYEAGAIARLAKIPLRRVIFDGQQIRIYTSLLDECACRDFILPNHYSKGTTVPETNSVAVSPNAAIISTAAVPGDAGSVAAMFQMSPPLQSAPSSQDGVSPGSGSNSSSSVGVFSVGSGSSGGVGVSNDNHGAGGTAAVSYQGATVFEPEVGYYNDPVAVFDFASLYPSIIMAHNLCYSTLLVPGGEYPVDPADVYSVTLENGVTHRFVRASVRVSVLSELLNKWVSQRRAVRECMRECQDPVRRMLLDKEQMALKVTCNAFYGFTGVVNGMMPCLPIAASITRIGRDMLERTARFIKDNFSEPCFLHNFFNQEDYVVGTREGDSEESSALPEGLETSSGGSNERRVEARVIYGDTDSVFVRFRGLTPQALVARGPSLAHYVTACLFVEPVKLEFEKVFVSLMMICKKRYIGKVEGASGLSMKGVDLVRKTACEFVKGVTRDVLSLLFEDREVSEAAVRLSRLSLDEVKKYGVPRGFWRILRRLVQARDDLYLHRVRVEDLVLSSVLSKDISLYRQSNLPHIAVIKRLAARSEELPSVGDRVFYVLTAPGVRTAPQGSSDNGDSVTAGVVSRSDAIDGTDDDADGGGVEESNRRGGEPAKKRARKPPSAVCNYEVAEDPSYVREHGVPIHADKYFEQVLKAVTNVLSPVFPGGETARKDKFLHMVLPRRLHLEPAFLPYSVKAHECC
Method: (§1) The HCMV polymerase assay is performed using a scintillation proximity assay (SPA) as described in several references, such as N. D. Cook, et al., Pharmaceutical Manufacturing International, pages 49-53 (1992); K. Takeuchi, Laboratory Practice, September issue (1992); U.S. Pat. No. 4,568,649 (1986); which are incorporated by reference herein. Reactions are performed in 96-well plates. The assay is conducted in 100 μl volume with 5.4 mM HEPES (pH 7.5), 11.7 mM KCl, 4.5 mM MgCl2, 0.36 mg/ml BSA, and 90 nM ^3H-dTTP. Assays are run with and without CHAPS, (3-[(3-Cholamidopropyl)-dimethylammonio]-1-propane-sulfonate) at a final concentration of 2 mM. HCMV polymerase is diluted in enzyme dilution buffer containing 50% glycerol, 250 mM NaCl, 10 mM HEPES (pH 7.5), 100 μg/ml BSA, and 0.01% sodium azide. The HCMV polymerase, which is expressed in recombinant baculovirus-infected SF-9 cells and purified according to literature procedures, is added at 10% (or 10 μl) of the final reaction volume, i.e., 100 μl. Compounds are diluted in 50% DMSO and 10 μl are added to each well. Control wells contain an equivalent concentration of DMSO. Unless noted otherwise, reactions are initiated via the addition of 6 nM biotinylated poly(dA)-oligo(dT) template/primer to reaction mixtures containing the enzyme, substrate, and compounds of interest. Plates are incubated in a 25° C. or 37° C. H2O bath and terminated via the addition of 40 μl/reaction of 0.5 M EDTA (pH 8) per well. Reactions are terminated within the time-frame during which substrate incorporation is linear and varied depending upon the enzyme and conditions used, i.e., 30 min. for HCMV polymerase. Ten μl of streptavidin-SPA beads (20 mg/ml in PBS/10% glycerol) are added following termination of the reaction. Plates are incubated 10 min. at 37° C., then equilibrated to room temperature, and counted on a Packard Topcount. Linear regressions are performed and IC50's are calculated using computer software.
A modified version of the above HCMV polymerase assay is performed as described above, but with the following changes: Compounds are diluted in 100% DMSO until final dilution into assay buffer. In the previous assay, compounds are diluted in 50% DMSO. 4.5 mM dithiotherotol (DTT) is added to the polymerase buffer.

VZV Polymerase = VZV Polymerase (Varicella-zoster virus, UniProt P09252); assay: VZV polymerase assay; assay type: biochemical
Sequence of VZV Polymerase (P09252 whole entry): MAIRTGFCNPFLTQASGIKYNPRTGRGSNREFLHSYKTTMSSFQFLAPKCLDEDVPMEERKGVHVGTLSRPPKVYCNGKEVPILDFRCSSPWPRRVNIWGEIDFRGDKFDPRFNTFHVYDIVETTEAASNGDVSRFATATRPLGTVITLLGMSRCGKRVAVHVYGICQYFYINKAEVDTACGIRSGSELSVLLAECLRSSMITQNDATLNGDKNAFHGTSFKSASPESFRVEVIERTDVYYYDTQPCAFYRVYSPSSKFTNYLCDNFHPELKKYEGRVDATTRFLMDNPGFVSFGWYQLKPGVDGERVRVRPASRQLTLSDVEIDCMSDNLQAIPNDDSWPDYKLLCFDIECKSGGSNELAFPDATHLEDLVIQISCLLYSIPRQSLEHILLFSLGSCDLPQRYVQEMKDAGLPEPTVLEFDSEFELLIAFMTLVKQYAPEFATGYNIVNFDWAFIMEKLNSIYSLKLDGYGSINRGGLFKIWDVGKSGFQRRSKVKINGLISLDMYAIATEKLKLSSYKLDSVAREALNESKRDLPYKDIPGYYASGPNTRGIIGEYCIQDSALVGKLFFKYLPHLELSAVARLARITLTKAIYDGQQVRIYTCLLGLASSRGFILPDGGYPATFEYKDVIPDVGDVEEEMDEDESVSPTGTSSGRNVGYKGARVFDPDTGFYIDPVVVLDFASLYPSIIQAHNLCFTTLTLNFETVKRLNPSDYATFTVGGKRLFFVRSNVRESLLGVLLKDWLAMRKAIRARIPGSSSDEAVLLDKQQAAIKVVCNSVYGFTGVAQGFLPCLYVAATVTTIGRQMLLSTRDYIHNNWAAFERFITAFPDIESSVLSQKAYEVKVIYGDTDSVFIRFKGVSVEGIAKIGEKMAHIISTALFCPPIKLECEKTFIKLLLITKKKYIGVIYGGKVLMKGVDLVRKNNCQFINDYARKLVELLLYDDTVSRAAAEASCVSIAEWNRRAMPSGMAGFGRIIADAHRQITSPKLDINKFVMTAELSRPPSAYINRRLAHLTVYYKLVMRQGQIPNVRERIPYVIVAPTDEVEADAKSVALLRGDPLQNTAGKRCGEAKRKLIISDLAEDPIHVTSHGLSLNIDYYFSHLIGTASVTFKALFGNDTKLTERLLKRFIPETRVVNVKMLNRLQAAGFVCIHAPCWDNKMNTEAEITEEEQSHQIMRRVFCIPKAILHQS
Method: [Worded in the source for another target; used here, by the source, with some conditions changed.] as §1, with “software. […]” for “software.”

HSV Polymerase = HSV Polymerase (Human herpesvirus 1, UniProt P04293); assay: HSV polymerase assay; assay type: biochemical
Sequence of HSV Polymerase (P04293 whole entry): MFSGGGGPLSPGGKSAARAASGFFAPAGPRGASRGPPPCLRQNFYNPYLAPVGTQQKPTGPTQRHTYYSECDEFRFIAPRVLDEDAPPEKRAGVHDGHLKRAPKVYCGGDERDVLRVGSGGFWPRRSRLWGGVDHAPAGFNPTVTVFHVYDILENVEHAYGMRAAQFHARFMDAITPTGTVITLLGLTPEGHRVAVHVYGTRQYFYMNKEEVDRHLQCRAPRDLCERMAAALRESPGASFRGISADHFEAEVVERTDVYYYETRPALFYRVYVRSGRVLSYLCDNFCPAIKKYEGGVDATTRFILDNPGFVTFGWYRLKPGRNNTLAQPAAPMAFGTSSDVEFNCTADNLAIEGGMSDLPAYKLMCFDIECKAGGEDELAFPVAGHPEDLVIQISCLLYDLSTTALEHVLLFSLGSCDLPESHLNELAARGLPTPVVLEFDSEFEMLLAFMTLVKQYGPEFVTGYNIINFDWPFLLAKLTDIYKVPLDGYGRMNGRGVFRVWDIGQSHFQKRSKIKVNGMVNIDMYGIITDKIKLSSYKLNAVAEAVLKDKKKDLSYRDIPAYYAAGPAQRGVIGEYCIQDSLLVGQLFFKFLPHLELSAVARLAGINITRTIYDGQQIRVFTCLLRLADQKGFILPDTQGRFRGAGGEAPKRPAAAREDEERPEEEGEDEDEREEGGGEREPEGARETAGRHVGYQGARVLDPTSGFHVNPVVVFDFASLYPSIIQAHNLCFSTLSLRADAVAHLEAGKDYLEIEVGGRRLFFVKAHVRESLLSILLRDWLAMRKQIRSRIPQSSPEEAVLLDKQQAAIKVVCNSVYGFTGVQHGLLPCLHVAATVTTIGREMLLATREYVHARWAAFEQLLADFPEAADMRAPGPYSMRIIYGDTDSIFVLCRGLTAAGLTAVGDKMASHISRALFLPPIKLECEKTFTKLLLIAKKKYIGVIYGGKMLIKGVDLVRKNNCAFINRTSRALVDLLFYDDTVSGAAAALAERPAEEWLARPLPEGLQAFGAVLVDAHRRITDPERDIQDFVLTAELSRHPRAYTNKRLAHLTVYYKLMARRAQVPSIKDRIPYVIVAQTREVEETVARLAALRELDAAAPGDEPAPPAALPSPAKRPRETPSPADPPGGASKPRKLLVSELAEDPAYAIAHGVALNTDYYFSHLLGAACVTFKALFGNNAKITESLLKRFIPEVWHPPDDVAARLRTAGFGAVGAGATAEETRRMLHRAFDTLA
Method: [Worded in the source for another target; used here, by the source, with some conditions changed.] as §1, with “software. […]” for “software.”

Row | melting point [°C] | IC50 (CMV Polymerase) [µM] | IC50 (VZV Polymerase) [µM] | IC50 (HSV Polymerase) [µM] | SMILES
1 | 157 to 159 | 0.54 | – | – | COCc1cc2cc(CN3CCOCC3)cc3c(=O)c(C(=O)NCc4ccc(Cl)cc4)cn1c23 [Example 17, N-(4-Chlorobenzyl)-2-(methoxymethyl)-8-(4-morpholinylmethyl)-6-oxo-6H-pyrrolo[3,2,1-ij]quinoline-5-carboxamide]
2 | 204 to 206 | 0.13 | 0.1 | 0.14 | O=C(NCc1ccc(Cl)cc1)c1cn2c(CCO)cc3cc(CC4CCOCC4)cc(c1=O)c32 [Example 23, N-(4-Chlorobenzyl)-2-(2-hydroxyethyl)-6-oxo-8-(tetrahydro-2H-pyran-4-ylmethyl)-6H-pyrrolo[3,2,1-ij]quinoline-5-carboxamide]
3 | 250 to 252 | 0.41 | – | – | NC(=O)NCc1cc2cc(CN3CCOCC3)cc3c(=O)c(C(=O)NCc4ccc(Cl)cc4)cn1c23 [Example 15, 2-{[(Aminocarbonyl)amino]methyl}-N-(4-chlorobenzyl)-8-(4-morpholinylmethyl)-6-oxo-6H-pyrrolo[3,2,1-ij]quinoline-5-carboxamide]
4 | 211 to 213 | 1.2 | – | – | O=C(NCc1ccc(Cl)cc1)c1cn2c(CO)cc3cccc(c1=O)c32 [Example 1, N-(4-Chlorobenzyl)-2-(hydroxymethyl)-6-oxo-6H-pyrrolo[3,2,1-ij]quinoline-5-carboxamide]
5 | 173 to 175 | 0.68 | – | – | O=C(NCc1ccc(Cl)cc1)c1cn2c(CSc3ccccc3)cc3cc(CN4CCOCC4)cc(c1=O)c32 [Example 19, N-(4-Chlorobenzyl)-8-(4-morpholinylmethyl)-6-oxo-2-[(phenylsulfanyl)methyl]-6H-pyrrolo[3,2,1-ij]quinoline-5-carboxamide]
6 | 236 to 239 | 0.36 | – | – | O=C(NCc1ccc(Cl)cc1)c1cn2c(CN3CCS(=O)(=O)CC3)cc3cc(CN4CCOCC4)cc(c1=O)c32 [Example 12, N-(4-Chlorobenzyl)-2-[(1,1-dioxido-4-thiomorpholinyl)methyl]-8-(4-morpholinylmethyl)-6-oxo-6H-pyrrolo[3,2,1-ij]quinoline-5-carboxamide]
7 | 177 to 178 | 0.58 | – | – | CCSCc1cc2cc(CN3CCOCC3)cc3c(=O)c(C(=O)NCc4ccc(Cl)cc4)cn1c23 [Example 18, N-(4-Chlorobenzyl)-2-[(ethylsulfanyl)methyl]-8-(4-morpholinylmethyl)-6-oxo-6H-pyrrolo[3,2,1-ij]quinoline-5-carboxamide]
8 | 196 to 198 | 0.21 | 0.16 | 0.2 | O=C(NCc1ccc(Cl)cc1)c1cn2c(CO)cc3cc(CC4CCOCC4)cc(c1=O)c32 [Example 2, N-(4-Chlorobenzyl)-2-(hydroxymethyl)-6-oxo-8-(tetrahydro-2H-pyran-4-ylmethyl)-6H-pyrrolo[3,2,1-ij]quinoline-5-carboxamide]
9 | 155 to 159 | 0.26 | – | – | C[C@@H](O)c1cc2cc(CN3CCOCC3)cc3c(=O)c(C(=O)NCc4ccc(Cl)cc4)cn1c23 [Example 16, N-(4-Chlorobenzyl)-2-[(IR)-1-hydroxyethyl]-8-(4-morpholinylmethyl)-6-oxo-6H-pyrrolo[3,2,1-ij]quinoline-5-carboxamide]
10 | 210 to 212 | 0.53 | 0.25 | 0.51 | O=C(NCc1ccc(Cl)cc1)c1cn2c(CO)cc3cc(CN4CCOCC4)cc(c1=O)c32 [Example 3, N-(4-Chlorobenzyl)-2-(hydroxymethyl)-8-(4-morpholinylmethyl)-6-oxo-6H-pyrrolo[3,2,1-ij]quinoline-5-carboxamide]
11 | – | 3.57 | – | – | O=C(NCc1ccc(Cl)cc1)c1cn2c(CCCN3CCOCC3)cc3cc(CN4CCOCC4)cc(c1=O)c32 [Example 11, N-(4-Chlorobenzyl)-8-(morpholin-4-ylmethyl)-2-(3-morpholin-4-ylpropyl)-6-oxo-6H-pyrrolo[3,2,1-ij]quinoline-5-carboxamide]
12 | – | 0.49 | – | – | CNCc1cc2cc(CN3CCOCC3)cc3c(=O)c(C(=O)NCc4ccc(Cl)cc4)cn1c23 [Example 20, N-(4-Chlorobenzyl)-2-[(methylamino)methyl]-8-(4-morpholinylmethyl)-6-oxo-6H-pyrrolo[3,2,1-ij]quinoline-5-carboxamide]
13 | 190 to 192 | 1.2 | – | – | O=C(NCc1ccc(Cl)cc1)c1cn2c(CCO)cc3cccc(c1=O)c32 [Example 22, N-(4-Chlorobenzyl)-2-(2-hydroxyethyl)-6-oxo-6H-pyrrolo[3,2,1-ij]quinoline-5-carboxamide]
14 | – | 0.62 | – | – | CN(C)Cc1cc2cc(CN3CCOCC3)cc3c(=O)c(C(=O)NCc4ccc(Cl)cc4)cn1c23 [Example 21, N-(4-Chlorobenzyl)-2-[(dimethylamino)methyl]-8-(4-morpholinylmethyl)-6-oxo-6H-pyrrolo[3,2,1-ij]quinoline-5-carboxamide]
15 | 244 to 246 | 0.84 | – | – | O=C(NCc1ccc(Cl)cc1)c1cn2c(CN3CCS(=O)(=O)CC3)c(I)c3cc(CN4CCOCC4)cc(c1=O)c32 [Example 13, N-(4-Chlorobenzyl)-2-[(1,1-dioxido-4-thiomorpholinyl)methyl]-1-iodo-8-(4-morpholinylmethyl)-6-oxo-6H-pyrrolo[3,2,1-ij]quinoline-5-carboxamide]
16 | – | 2.43 | – | – | CCN(CC)CCc1cc2cc(CN3CCOCC3)cc3c(=O)c(C(=O)NCc4ccc(Cl)cc4)cn1c23 [Example 6, N-(4-Chlorobenzyl)-2-[2-(diethylamino)ethyl]-8-(4-morpholinylmethyl)-6-oxo-6H-pyrrolo[3,2,1-ij]quinoline-5-carboxamide]
17 | 171 to 174 | 0.32 | – | – | O=C(NCc1ccc(Cl)cc1)c1cn2c(CCCO)cc3cc(CN4CCOCC4)cc(c1=O)c32 [Example 14, N-(4-Chlorobenzyl)-2-(3-hydroxypropyl)-8-(4-morpholinylmethyl)-6-oxo-6H-pyrrolo[3,2,1-ij]quinoline-5-carboxamide]
18 | – | 1.76 | – | – | CN1CCN(CCc2cc3cc(CN4CCOCC4)cc4c(=O)c(C(=O)NCc5ccc(Cl)cc5)cn2c34)CC1 [Example 7, N-(4-Chlorobenzyl)-2-[2-(4-methylpiperazin-1-yl)ethyl]-8-(morpholin-4-ylmethyl)-6-oxo-6H-pyrrolo[3,2,1-ij]quinoline-5-carboxamide]
19 | – | 1.92 | – | – | CCC1CCCCN1CCc1cc2cc(CN3CCOCC3)cc3c(=O)c(C(=O)NCc4ccc(Cl)cc4)cn1c23 (stereo not shown) [Example 8, N-(4-Chlorobenzyl)-2-[2-(2-ethylpiperidin-1-yl)ethyl]-8-(morpholin-4-ylmethyl)-6-oxo-6H-pyrrolo[3,2,1-ij]quinoline-5-carboxamide]
20 | – | 2.3 | – | – | O=C(NCc1ccc(Cl)cc1)c1cn2c(CCN3CCCCC3)cc3cc(CN4CCOCC4)cc(c1=O)c32 [Example 10, N-(4-Chlorobenzyl)-8-(morpholin-4-ylmethyl)-6-oxo-2-(2-piperidin-1-ylethyl)-6H-pyrrolo[3,2,1-ij]quinoline-5-carboxamide]
21 | – | 3.44 | – | – | CN1CCN(CCCc2cc3cc(CN4CCOCC4)cc4c(=O)c(C(=O)NCc5ccc(Cl)cc5)cn2c34)CC1 [Example 9, N-(4-Chlorobenzyl)-2-[3-(4-methylpiperazin-1-yl)propyl]-8-(morpholin-4-ylmethyl)-6-oxo-6H-pyrrolo[3,2,1-ij]quinoline-5-carboxamide]
